Assay results reported in PMC9486808 (ACS Chemical Biology, 2022).
“Also recorded” adds a separate entry of the source. Positions of bridges follow the written chain, without caps; N, C: chain ends. Non-standard residues stand in square brackets, D forms with d. Residues, ends and D or L forms follow the SMILES beside them.

Legend:
Type in all cases: cell-based, Influenza A virus A/California/04/2009 (H1N1)
[1] = target: full-length H1 HA I375F (Influenza A virus, UniProt C3W5S1, I389F)
[2] = target: full length, membrane-bound H1 HA (Influenza A virus, UniProt C3W5S1)
[3] = target: full-length H1 HA I463V (Influenza A virus, UniProt C3W5S1, I477V)

`CC(C)C[C@@H]1NC(=O)[C@H](C(C)C)NC(=O)[C@@H](Cc2ccc(O)cc2)NC(=O)CSC[C@@H](C(=O)NCC(N)=O)NC(=O)[C@H](C(C)C)NC(=O)[C@H](Cc2c[nH]c3ccccc23)NC(=O)[C@H](Cc2c[nH]cn2)NC(=O)[C@H]([C@@H](C)O)NC(=O)[C@H](C)NC(=O)[C@H](CC(C)C)NC(=O)[C@H]([C@@H](C)O)NC(=O)CNC(=O)[C@H](Cc2c[nH]cn2)NC(=O)[C@H](CC(=O)O)NC(=O)[C@H](Cc2c[nH]c3ccccc23)NC(=O)[C@H](CCCNC(=N)N)NC(=O)[C@H](Cc2ccccc2)NC1=O` [S5] ({CH2CO}-[dY]VLFRWDHGTLATHWVCG-NH2; thioether N-17) was tested. Which “Binding of biotinylated S5 to cell-surface H1” value [1] did it give?
The value was “hinders binding; also recorded: affected by the I375F substitution”.

And the “Competition with mAb Fi6 staining” value [2]?
Its value is “strongly decreased the staining; also recorded: competed with the binding of mAb Fi6”.

What about the “Binding of biotinylated S5 to cell-surface H1” value [3] of the same compound?
Its value is “not by the I463V substitution”.
